# Legend:
# [1] = system: IL-6 secretion in SW-982 synovial cells; experiment: IL-6 secretion in IL-1β-stimulated SW-982 synovial cells (ELISA); format: cell-based, human; conditions: SW-982, IL-1β 1 ng/mL, 6 hours; VR23 10 μM, HCQ 60 μM
# Experimental: The mean±SEM (n=2) values were determined by a Dunnett's test.
# (§1) The enzyme-linked immunosorbent assay (ELISA) is a quantitative measurement based on sandwich-based enzyme linking, using a protein-specific capture antibody to determine the levels of single or multiple chemokines and cytokines.
# The measurement was carried out with a single-analyte ELISA. […] While not wishing to be limited by theory, cytokine IL-6 is strongly implicated to the progress of rheumatoid arthritis^29.
# SW-982 cells = experiment: CCK-8 cell viability, SW-982 cells; format: cell-based; conditions: SW-982, 6 hours with IL-1β 1 ng/mL; VR23 5 μM, HCQ 30 μM
# Experimental: Dunnett's test was performed to assess if there are significant differences in cell viability compared to the non-treatment control group. The values presented are mean±SEM (n=3).
# The CCK-8 assay was used to count viable cells under the various treatment conditions. Briefly, cells were cultured in 11 columns of a 96-well clustered plate, with 5,000 cells in 100 μL of culture medium per well, excluding one column for a media-only control. The plate was incubated overnight at 37° C. in the humidified conditions, followed by treatment with test compounds diluted in the culture medium (10 μL). Each column was treated with a different condition so that each treatment could have 8 repeats. […] The absorbance was measured using an automatic plate reader (Synergy H4 Hybrid Multi-Mode Microplate Reader, BioTek, Montreal, Canada) at 450 nm wavelength. The cell viability of each treatment sample was determined by using the following equation (%)=(Abstrtmt-Absmedia)/(AbsuT-Absmedia)*100, where Abstrtmt is the absorbance value of cells with the various treatment conditions; Absmedia is the absorbance of the well containing media only; AbsuT is the absorbance of the wells with untreated cells. […]
# [2] = system: IL-8 secretion in THP-1 cells; experiment: IL-8 secretion in TNF-α-stimulated THP-1 cells (ELISA); format: cell-based, human; conditions: THP-1, TNF-α 10 ng/mL, 6 hours
# Experimental: For comparison, BTZ (6 nM), CFZ (1 nM), and DEX (2 μM) were also included. *** is p<0.001, which denotes a significant difference from the TNF-α-only group, determined by a Dunnett's test. The values presented are the mean±SEM (n=3).
# as §1
# The data in FIG. 12 show the levels of IL-8 secreted in the THP-1 culture medium in response to TNF-α alone (10 ng/mL) or in combination with varying concentrations (0.5, 1.0, 2, 4 or 6 μM) of VR23. For comparison, BTZ (6 nM), CFZ (1 nM) and DEX (2 μM) were also included. The measurement time was 6-hour post-stimulation. The measurement was carried out with a single-analyte ELISA.
# [3] = target: β2 subunit of the proteasome 20S catalytic unit (Homo sapiens, UniProt Q99436); conditions: cited from earlier work
# [4] = system: CQ-sensitive P. falciparum 3D7; experiment: Anti-parasitic assay (SYBR Green I), 3D7 strain; format: cell-based; conditions: Plasmodium falciparum, 3D7, 48 h
# Experimental: The CQ-resistant P. falciparum ItG and the CQ-sensitive 3D7 strains were maintained and assays carried out as described previously^25. Briefly, P. falciparum strains were maintained in RPMI 1640 culture medium supplemented with 10% human serum, 25 mM HEPES, gentamicin, and 50 μM of hypoxanthine. The anti-parasitic assay was carried out as described previously^25. Briefly, a compound gradient was generated across a 96-well assay plate; a constant number of parasites added in 50 μL of the culture medium; allowed to grow for 48 hours; and followed by the measurement of DNA amounts (i.e., fluorescence) using SYBR Green I. The IC50 value is the 50% point between alive and dead for which a three-parameter fit was used.
# VR23 is a derivative of CQ; a well-known anti-malarial drug. […] ItG and […] P. falciparum strains are CQ-resistant and CQ-sensitive strains, respectively. IC50 values were calculated by S.E.M (Table 2).
# [5] = system: IL-6 secretion in HFLS-RA cells; experiment: IL-6 secretion in stimulated HFLS-RA cells (ELISA); format: cell-based, human; conditions: 6 hours
# Experimental: (§2) The mean±SEM (n=3) values were determined by a Dunnett's test.
# (§3) The values presented are the mean±SEM (n=2).
# as §1
# (§4) This finding was extended to human cells relevant to autoimmune diseases. Human fibroblast-like synoviocytes (HFLS) are present in the synovial fluid of joint capsules and produce harmful molecules that contribute to joint destruction and the exacerbation of the disease in rheumatoid arthritis patients. […] The cells were then stimulated with IL-1β (FIG. 16) or LPS (FIG. 17), in the absence (control; IL-1β only) or presence of VR23 or HCQ. HCQ was included for comparison because it is often used to treat rheumatoid arthritis. […] For “VR23 only” samples, 5 μM VR23 was used. Fifty thousand HFLS cells per mL were used for the experiment. Cytokine levels in cell culture supernatants were determined by a single-analyte ELISA. […] Fifty thousand HFLS cells per mL were used for the experiment. The cytokine secretion was measured in cell culture supernatants by a single-analyte ELISA.
# [6] = system: IL-6 secretion in HFLS-N cells; experiment: IL-6 secretion in stimulated HFLS-N cells (ELISA); format: cell-based, human; conditions: 6 hours
# Experimental: as §2, §3, §1, §4
structure (smiles),measurement,setting,value
"O=[N+]([O-])c1ccc(S(=O)(=O)N2CCN(c3ccnc4cc(Cl)ccc34)CC2)c([N+](=O)[O-])c1 [VR23, 7-chloro-4-(4-(2,4-dinitrophenylsulfonyl)piperazin-1-yl)quinoline]",secretion of IL-6,[1],substantially reduced the secretion of IL-6
same,cell viability (CCK-8),SW-982 cells,did not significantly differ from the untreated cells
same,level of IL-8,[2]; 0.5 μM,significantly (p<0.001) reduced the level of IL-8
same,IL-8 secretion,"[2]; VR23 at IC50 concentration (between 2 and 4 μM), BTZ 6 nM, CFZ 1 nM",effectively reduces IL-8 secretion
same,proteasome inhibition,[3],strong proteasome inhibitor
same,IC50,[4],416 nM
same,"IL-6 secretion, dose dependence","[5]; HFLS-RA, IL-1β 10 ng/mL, VR23 2.5-10 μM, HCQ 15 or 30 μM",decreases in a dose dependent manner
same,secretion of IL-6,"[5]; HFLS-RA, LPS 100 ng/mL, 5 or 10 μM",decreased substantially
same,"level of IL-6 secretion, HFLS-RA versus HFLS-N","[5]; IL-1β 10 ng/mL, VR23 5 μM",reduces the level of IL-6 secretion more effectively on HFLS-RA than HFLS-N
same,"IL-6 reduction, 5 μM VR23 versus 30 μM HCQ","[5]; synovial cells from rheumatoid arthritis patients, IL-1β or LPS",significantly more effective
same,"IL-6 secretion, dose dependence","[6]; IL-1β 10 ng/mL, VR23 2.5-10 μM, HCQ 15 or 30 μM",decreases in a dose dependent manner
same,secretion of IL-6,[6]; LPS 100 ng/mL,rate of the decrease is much lower
